Values quoted from earlier work, collected in paper PMC12704579, “New Anticancer 4‐Aryldihydropyrimidinone‐5‐Carboxylates Targeting Hsp90” (Chemical Biology & Drug Design, 2025).

Tests used:
HCC1954 cells = tested on: HCC1954 cells; design: method as in Bordoni [2016]; details: invasive breast cancer cell line HCC1954; ref Bordoni [2016]; cited from earlier work
Bcl3-p50 = tested on: Bcl3-p50; design: method as in Soukupová [2013]; details: ref Soukupová [2013]; cited from earlier work

For `CCOc1cc(C2NC(=O)NC(C)=C2C(=O)OCc2ccc3c(c2)OCO3)ccc1O` (centres unmarked) [Compound 1], the “Inhibitory activity in colony forming assay, HCC1954” value (HCC1954 cells) is listed as “potent inhibitory activity” and the “Activity within the Bcl3-binding assays” value (Bcl3-p50) is listed as “not active”.
